Assay results from patent US20140179519A1, “N-THIO-ANTHRANILAMIDE COMPOUNDS AND THEIR USE AS PESTICIDES” (BASF SE, priority 2011, published 2014).

Experiments:
[1] = system: Orchid thrips (Dichromothrips corbetti); experiment: CE.1 Orchid thrips floral-immersion test, comparison with comparative compounds; assay type: in vivo; details: for % activity (mortality of Orchid thrips in %, vs. untreated control): floral immersion, 72 hours after treatment
Protocol: (§1) The activity summarized in the tables hereinbelow are given as percentage of mortality in comparison with untreated control
Dichromothrips corbetti adults used for bioassay were obtained from a colony maintained continuously under laboratory conditions. For testing purposes, the test compound is diluted in a 1:1 mixture of acetone:water (vol:vol), plus 0.01% vol/vol Alkamuls® EL 620 surfactant.
Thrips potency of each compound was evaluated by using a floral-immersion technique. Plastic petri dishes were used as test arenas. All petals of individual, intact orchid flowers were dipped into treatment solution and allowed to dry. Treated flowers were placed into individual petri dishes along with about 20 adult thrips. The petri dishes were then covered with lids. All test arenas were held under continuous light and a temperature of about 28° C. for duration of the assay. After 3 days, the numbers of live thrips were counted on each flower, and along inner walls of each petri dish. The percent mortality was recorded 72 hours after treatment.

[2] = system: Rice green leafhopper (Nephotettix virescens); experiment: CE.2 Rice green leafhopper spray test on rice seedlings, comparison with comparative compound; assay type: in vivo; details: for % activity (mortality of Rice green leafhopper in %, vs. untreated control): sprayed rice seedlings, after 72 hours
Protocol: as §1
Rice seedlings were cleaned and washed 24 hours before spraying. The active compounds were formulated in 50:50 acetone:water (vol:vol), and 0.1% vol/vol surfactant (EL 620) was added. Potted rice seedlings were sprayed with 5 ml test solution, air dried, placed in cages and inoculated with 10 adults. Treated rice plants were kept at about 28-29° C. and relative humidity of about 50-60%. Percent mortality was recorded after 72 hours.

[3] = percent mortality 72 hours after treatment

**Q.** Which “% activity (mortality of Orchid thrips in %, vs. untreated control)” value ([1]; 10 ppm active ingredient) does the source give for `Cc1cc(Cl)cc(C(=O)N=S(C)C)c1NC(=O)c1cc(C(F)F)nn1-c1ncccc1Cl` [Compound 4] here?
**A.** Its value is 95%.

**Q.** What about the “% activity (mortality of Orchid thrips in %, vs. untreated control)” value ([1]; 100 ppm active ingredient) of the same compound?
**A.** The value was 100%.

**Q.** And the “% activity (mortality of Orchid thrips in %, vs. untreated control)” value ([1]; 300 ppm active ingredient)?
**A.** The value was 100%.

**Q.** What about the “activity against Orchid thrips in comparison with comparative compound CC-1” value [1, 3] of the same compound?
**A.** The value was “superior activity”.

**Q.** `Cc1cc(Cl)cc(C(=O)N=S(C(C)C)C(C)C)c1NC(=O)c1cc(C(F)F)nn1-c1ncccc1Cl` [Compound 25] was tested. Which “% activity (mortality of Orchid thrips in %, vs. untreated control)” value ([1]; 10 ppm active ingredient) did it give?
**A.** The value was 95%.

**Q.** What about the “% activity (mortality of Orchid thrips in %, vs. untreated control)” value ([1]; 100 ppm active ingredient) of the same compound?
**A.** The value was 100%.

**Q.** And the “% activity (mortality of Orchid thrips in %, vs. untreated control)” value ([1]; 300 ppm active ingredient)?
**A.** Its value is 100%.

**Q.** What about the “activity against Orchid thrips in comparison with comparative compound CC-2” value [1, 3] of the same compound?
**A.** The value was “superior activity”.

**Q.** What about the “% activity (mortality of Rice green leafhopper in %, vs. untreated control)” value ([2]; 100 ppm active ingredient) of the same compound?
**A.** The value was 50%.

**Q.** And the “% activity (mortality of Rice green leafhopper in %, vs. untreated control)” value ([2]; 300 ppm active ingredient)?
**A.** The value was 100%.

**Q.** What about the “% activity (mortality of Rice green leafhopper in %, vs. untreated control)” value ([2]; 500 ppm active ingredient) of the same compound?
**A.** Its value is 100%.

**Q.** What about the “activity against Rice green leafhopper in comparison with comparative compound CC-2” value ([2]; percent mortality after 72 hours) of the same compound?
**A.** The value was “superior activity”.
